pIC50: −log10 of the molar value.
Assays:
TT (RET C634W) cells = test: Cell proliferation assay (MTS), TT cells; format: cell-based; settings: 72 h incubation, MTS readout
Procedure, shortened: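 TT cells (F12K, 10% FBS) and LC-2/ad cells (HamF12:RPMI1640 1:1, 10% FBS, 2 mM glutamine) were seeded at 5000/well for 24 h. They were then treated 72 h at 37 °C with nine final concentrations from 10000 to 1.5 nM. MTS was read after 2 h, SDS-stopped, at 490 nm (650 nm reference), and IC50 calculated.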

[1] = system: LC-2/ad (CCDCl6-RET) cells; test: Cell proliferation assay (MTS), LC-2/ad cells; format: cell-based; settings: LC-2/ad cells (CCDCl6-RET), 72 h incubation, MTS readout
Method: MTS testing kit was purchased from Promega. The RPMI-1640, F12, F12K, Fetal bovine serum and Penicillin-Streptomycin were purchased from BI. Glutamine and Dimethyl sulfoxide (DMSO) were purchased from Sigma. TT cells were cultured in F12K supplemented with 10% FBS and LC-2/ad cells were cultured in HamF12: RPMI1640 (1:1) supplemented with 10% FBS and 2 mM Glutamine.
To investigate whether a compound is able to inhibit the activity of RET fusion and/or mutation in cells, a mechanism-based assay using TT (RET C634W) and LC-2/ad (CCDCl6-RET) cell lines was developed. In this assay, the inhibition of RET fusion and/or mutation was reflected by the inhibition of cell proliferation of TT and LC-2/ad cells. Cells were plated into 96-well plates at the optimized cell density (TT: 5000 cells/well; LC-2/ad: 5000 cells/well). Plates were incubated at 37° C., with 5% CO2 for 24 h. Compounds were serially diluted and added to the plates with the final concentrations as 10000, 3333.3, 1111.1, […], 123.5, 41.2, 13.7, 4.6 and 1.5 nM. Plates were incubated at 37° C., with 5% CO2 for 72 h. An aliquot of 20 μL MTS/100 μL medium mixture solution were added to each well and the plates were incubated for exactly 2 h. The reaction was stopped by adding 25 μL 10% SDS to each well. The absorbance was measured by a microplate reader at 490 nm and 650 nm (reference wavelength). IC50 was calculated using GraphPad Prism 5.0.

COc1ccc(CN2C3CC2CN(c2ccc(-c4cc(OCC5(O)CC5)cc5ncc(C#N)n45)cn2)C3)cn1 [Example 57A, 7-((1-Hydroxycyclopropyl)methoxy)-5-(6-(6-((6-methoxypyridin-3-yl)methyl)-3,6-diazabicyclo[3.1.1]heptan-3-yl)pyridin-3-yl)imidazo[1,2-a]pyridine-3-carbonitrile]
pIC50 (TT (RET C634W) cells): 7.48
pIC50 ([1]; Homo sapiens, LC-2-ad, 72 h): 7.09

COc1ccc(CN2C3CC2CN(c2ccc(-c4cc(OCC5(O)CC5)cc5ncc(C#N)n45)cn2)C3)cn1 [Example 57B, 7-((1-Hydroxycyclopropyl)methoxy)-5-(6-(6-((6-methoxypyridin-3-yl)methyl)-3,6-diazabicyclo[3.1.1]heptan-3-yl)pyridin-3-yl)imidazo[1,2-a]pyridine-3-carbonitrile]
pIC50 (TT (RET C634W) cells): 6.90
pIC50 [1]: 6.94

COc1ccc(CN2C3CC2CN(c2ccc(-c4cc(OCCC(O)C(F)(F)F)cc5ncc(C#N)n45)cn2)C3)cn1 (stereo not drawn) [Example 59, 5-(6-(6-((6-Methoxypyridin-3-yl)methyl)-3,6-diazabicyclo[3.1.1]heptan-3-yl)pyridin-3-yl)-7-(4,4,4-trifluoro-3-hydroxybutoxy)imidazo[1,2-a]pyridine-3-carbonitrile]
pIC50 (TT (RET C634W) cells; Homo sapiens, TT, 72 h): 6.90
pIC50 ([1]; Homo sapiens, LC-2-ad, 72 h): 7.19

COc1ccc(OC2CCN(c3ccc(-c4cc(OCC(C)(C)O)cc5ncc(C#N)n45)cn3)CC2)cn1 [Example 60, 7-(2-Hydroxy-2-methylpropoxy)-5-(6-(4-((6-methoxypyridin-3-yl)oxy)piperidin-1-yl)pyridin-3-yl)imidazo[1,2-a]pyridine-3-carbonitrile]
pIC50 (TT (RET C634W) cells; Homo sapiens, TT, 72 h): 8.52
pIC50 ([1]; Homo sapiens, LC-2-ad, 72 h): 8.05

CC(C)(O)COc1cc(-c2ccc(N3CCC(Oc4ccccn4)CC3)nc2)n2c(C#N)cnc2c1 [Example 64, 7-(2-hydroxy-2-methylpropoxy)-5-(6-(4-(pyridin-2-yloxy)piperidin-1-yl)pyridin-3-yl)imidazo[1,2-a]pyridine-3-carbonitrile]
pIC50 (TT (RET C634W) cells; Homo sapiens, TT, 72 h): 7.06
pIC50 ([1]; Homo sapiens, LC-2-ad, 72 h): 7.55

COc1ccc(OC2CCN(c3ccc(-c4cc(OCC(C)(C)O)cc5ncc(C#N)n45)cn3)CC2)nn1 [Example 65, 7-(2-hydroxy-2-methylpropoxy)-5-(6-(4-((6-methoxypyridazin-3-yl)oxy)piperidin-1-yl)pyridin-3-yl)imidazo[1,2-a]pyridine-3-carbonitrile]
pIC50 (TT (RET C634W) cells; Homo sapiens, TT, 72 h): 7.42
pIC50 ([1]; Homo sapiens, LC-2-ad, 72 h): 7.47

CC(C)(O)COc1cc(-c2ccc(N3CCC(O)(Cc4ccccc4)CC3)nc2)n2c(C#N)cnc2c1 [Example 66, 5-(6-(4-benzyl-4-hydroxypiperidin-1-yl)pyridin-3-yl)-7-(2-hydroxy-2-methylpro-poxy)imidazo[1,2-a]pyridine-3-carbonitrile]
pIC50 (TT (RET C634W) cells; Homo sapiens, TT, 72 h): 6.93
pIC50 ([1]; Homo sapiens, LC-2-ad, 72 h): 7.26

COc1ccc(OC2CCN(c3ccc(-c4cc(OCC5(O)CC5)cc5ncc(C#N)n45)cn3)CC2)cn1 [Example 68, 7-((1-hydroxycyclopropyl)methoxy)-5-(6-(4-((6-methoxypyridin-3-yl)oxy)piperidin-1-yl)pyridin-3-yl)imidazo[1,2-a]pyridine-3-carbonitrile]
pIC50 (TT (RET C634W) cells; Homo sapiens, TT, 72 h): 8.30
pIC50 ([1]; Homo sapiens, LC-2-ad, 72 h): 8.00

COc1ccc(OC2CCN(c3ccc(-c4cc(OCC(O)C(F)(F)F)cc5ncc(C#N)n45)cn3)CC2)cn1 (stereo not drawn) [Example 69, 5-(6-(4-((6-methoxypyridin-3-yl)oxy)pi-peridin-1-yl)pyridin-3-yl)-7-(3,3,3-trifluoro-2-hydroxypropoxy)imidazo[1,2-a]pyri-dine-3-carbonitrile]
pIC50 (TT (RET C634W) cells; Homo sapiens, TT, 72 h): 7.24
pIC50 ([1]; Homo sapiens, LC-2-ad, 72 h): 7.31

— US20220041588A1, “SUBSTITUTED IMIDAZO[1,2-A]PYRIDINE AND [1,2,4]TRIAZOLO[1,5-A]PYRIDINE COMPOUNDS AS RET KINASE INHIBITORS” (FOCHON PHARMACEUTICALS, LTD., priority 2018, published 2022)
